Experimental findings from US10689381B2 (priority 2017, dated 2020) are described below.

Read-outs that look alike come from different tables or passages of the source.

In one assay the test system is HCT116. The experiment in a line: cells. Format: cell-based, human. Particulars: for IC50: read-out: IC50 HCT116; for potency relative to vinblastine (more potent): vinblastine-sensitive cell lines. In short, it runs like this: (§1)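 Compound exposure ran 72 h at six concentrations (0–1000 nM or 0–10000 nM, duplicate) on cells plated at 30,000 cells/mL in 10% FBS DMEM. A closing 37 °C incubation took 15 min (HCT116) or 5 min (L1210).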

Another assay has as its system L1210. As to the kind of experiment: cells. Format: cell-based, mouse. In short, it runs like this:
as §1

What is called IC50 is the concentration needed to halve the response being measured. As to `CC[C@]1(NC(=O)c2cnccn2)C[C@H]2CN(CCc3c([nH]c4ccccc34)[C@@](C(=O)OC)(c3cc4c(cc3OC)N(C)[C@H]3[C@@](O)(C(=O)OC)[C@H](OC(C)=O)[C@]5(CC)C=CCN6CC[C@]43[C@@H]65)C2)C1` [Compound 131], the 50% inhibitory concentration (IC50) in the assay with HCT116 (Table 5) worked out at 20 nM; in the assay with L1210 (Table 5) it was 40 nM.

In the case of `CC[C@]1(NC(=O)c2ccnnc2)C[C@H]2CN(CCc3c([nH]c4ccccc34)[C@@](C(=O)OC)(c3cc4c(cc3OC)N(C)[C@H]3[C@@](O)(C(=O)OC)[C@H](OC(C)=O)[C@]5(CC)C=CCN6CC[C@]43[C@@H]65)C2)C1` [Compound 132], the IC50 worked out at 9 nM in the assay with HCT116 (Table 5) and 30 nM in the assay with L1210 (Table 5).

Turning to `CC[C@]1(NC(=O)c2ccoc2)C[C@H]2CN(CCc3c([nH]c4ccccc34)[C@@](C(=O)OC)(c3cc4c(cc3OC)N(C)[C@H]3[C@@](O)(C(=O)OC)[C@H](OC(C)=O)[C@]5(CC)C=CCN6CC[C@]43[C@@H]65)C2)C1` [Compound 133], in the assay on HCT116, the “activity relative to 20′ benzamide Compound 24 (better)” value was “roughly 2 fold” and the “potency relative to vinblastine (more potent)” value was determined as 10 fold. In addition, the IC50 in the assay with HCT116 (Table 5) was determined as 0.6 nM. Also, in the assay with L1210 (Table 5), half-maximal inhibition (IC50) required 0.7 nM.

With `CCC1(NC(=O)c2ccco2)CC2CN(CCc3c([nH]c4ccccc34)C(C(=O)OC)(c3cc4c(cc3OC)N(C)C3C(O)(C(=O)OC)C(OC(C)=O)C5(CC)C=CCN6CCC43C65)C2)C1` (stereo not drawn) [Compound 134], the IC50 with HCT116 (Table 5) and in the assay with L1210 (Table 5) was 0.7 nM in each case.

With `CCC1(NC(=O)c2ccsc2)CC2CN(CCc3c([nH]c4ccccc34)C(C(=O)OC)(c3cc4c(cc3OC)N(C)C3C(O)(C(=O)OC)C(OC(C)=O)C5(CC)C=CCN6CCC43C65)C2)C1` (stereo not drawn) [Compound 135], the IC50 in the assay with HCT116 (Table 5) turned out to be 0.7 nM; with L1210 (Table 5), 0.5 nM.

Consider `CCC1(NC(=O)c2cccs2)CC2CN(CCc3c([nH]c4ccccc34)C(C(=O)OC)(c3cc4c(cc3OC)N(C)C3C(O)(C(=O)OC)C(OC(C)=O)C5(CC)C=CCN6CCC43C65)C2)C1` (stereo not drawn) [Compound 136], for which the “activity relative to 20′ benzamide Compound 24 (better)” value in the assay with HCT116 is recorded as “roughly 2 fold”. The IC50 with HCT116 (Table 5) and in the assay with L1210 (Table 5) was 0.6 nM each time. Further, the “potency relative to vinblastine (more potent)” value in the assay with HCT116 was 10 fold.

Regarding `CC[C@]1(NC(=O)c2cocn2)C[C@H]2CN(CCc3c([nH]c4ccccc34)[C@@](C(=O)OC)(c3cc4c(cc3OC)N(C)[C@H]3[C@@](O)(C(=O)OC)[C@H](OC(C)=O)[C@]5(CC)C=CCN6CC[C@]43[C@@H]65)C2)C1` [Compound 137], the IC50 in the assay on HCT116 (Table 5) worked out at 4 nM; in the assay on L1210 (Table 5), 4.5 nM.

`CC[C@]1(NC(=O)c2cnco2)C[C@H]2CN(CCc3c([nH]c4ccccc34)[C@@](C(=O)OC)(c3cc4c(cc3OC)N(C)[C@H]3[C@@](O)(C(=O)OC)[C@H](OC(C)=O)[C@]5(CC)C=CCN6CC[C@]43[C@@H]65)C2)C1` [Compound 138]: the values for the IC50 in the assay with HCT116 (Table 5) and with L1210 (Table 5) were 3.5 nM and 3.9 nM, respectively.

For `CC[C@]1(NC(=O)c2cscn2)C[C@H]2CN(CCc3c([nH]c4ccccc34)[C@@](C(=O)OC)(c3cc4c(cc3OC)N(C)[C@H]3[C@@](O)(C(=O)OC)[C@H](OC(C)=O)[C@]5(CC)C=CCN6CC[C@]43[C@@H]65)C2)C1` [Compound 139], the IC50 in the assay on HCT116 (Table 5) came out at 6.3 nM; in the assay on L1210 (Table 5), 5.6 nM.

With `CCC1(NC(=O)c2cncs2)CC2CN(CCc3c([nH]c4ccccc34)C(C(=O)OC)(c3cc4c(cc3OC)N(C)C3C(O)(C(=O)OC)C(OC(C)=O)C5(CC)C=CCN6CCC43C65)C2)C1` (stereo not drawn) [Compound 140], the values for the IC50 in the assay with HCT116 (Table 5) and with L1210 (Table 5) were 0.6 nM and 1.8 nM, respectively.

`CCC1(NC(=O)c2cncn2C)CC2CN(CCc3c([nH]c4ccccc34)C(C(=O)OC)(c3cc4c(cc3OC)N(C)C3C(O)(C(=O)OC)C(OC(C)=O)C5(CC)C=CCN6CCC43C65)C2)C1` (stereo not drawn) [Compound 141]: the figures for the IC50 with HCT116 (Table 5) and with L1210 (Table 5) were 2.2 nM and 4 nM, respectively.

As to `CCC1(NC(=O)c2ccon2)CC2CN(CCc3c([nH]c4ccccc34)C(C(=O)OC)(c3cc4c(cc3OC)N(C)C3C(O)(C(=O)OC)C(OC(C)=O)C5(CC)C=CCN6CCC43C65)C2)C1` (stereo not drawn) [Compound 143], the values for the IC50 with HCT116 (Table 5) and with L1210 (Table 5) were 7 nM and 4.5 nM, respectively.

Take `CCC1(NC(=O)C2CCOCC2)CC2CN(CCc3c([nH]c4ccccc34)C(C(=O)OC)(c3cc4c(cc3OC)N(C)C3C(O)(C(=O)OC)C(OC(C)=O)C5(CC)C=CCN6CCC43C65)C2)C1` (stereo not drawn) [Compound 144]: the IC50 turned out to be 35 nM in the assay with HCT116 (Table 5) and 70 nM in the assay on L1210 (Table 5).

As for `CCC1(NC(=O)C2CCSCC2)CC2CN(CCc3c([nH]c4ccccc34)C(C(=O)OC)(c3cc4c(cc3OC)N(C)C3C(O)(C(=O)OC)C(OC(C)=O)C5(CC)C=CCN6CCC43C65)C2)C1` (stereo not drawn) [Compound 145], the IC50 in the assay on HCT116 (Table 5) is 450 nM; in the assay on L1210 (Table 5) it was 460 nM.

As for `CCC1(NC(=O)C2CCN(C(=O)OC(C)(C)C)CC2)CC2CN(CCc3c([nH]c4ccccc34)C(C(=O)OC)(c3cc4c(cc3OC)N(C)C3C(O)(C(=O)OC)C(OC(C)=O)C5(CC)C=CCN6CCC43C65)C2)C1` (stereo not drawn) [Compound 147], the values for the IC50 in the assay with HCT116 (Table 5) and in the assay with L1210 (Table 5) were 45 nM and 50 nM, respectively.

As to `CCC1(NC(=O)C2CCN(C)CC2)CC2CN(CCc3c([nH]c4ccccc34)C(C(=O)OC)(c3cc4c(cc3OC)N(C)C3C(O)(C(=O)OC)C(OC(C)=O)C5(CC)C=CCN6CCC43C65)C2)C1` (stereo not drawn) [Compound 148], the IC50 is 4400 nM in the assay with HCT116 (Table 5) and 5300 nM in the assay on L1210 (Table 5).

In the case of `CCC1(NC(=O)c2ccc3cccnc3c2)CC2CN(CCc3c([nH]c4ccccc34)C(C(=O)OC)(c3cc4c(cc3OC)N(C)C3C(O)(C(=O)OC)C(OC(C)=O)C5(CC)C=CCN6CCC43C65)C2)C1` (stereo not drawn) [Compound 149], the figures for the IC50 in the assay on HCT116 (Table 6) and in the assay with L1210 (Table 6) were 0.7 nM and 0.6 nM, respectively.

On to `CCC1(NC(=O)c2ccc3ncccc3c2)CC2CN(CCc3c([nH]c4ccccc34)C(C(=O)OC)(c3cc4c(cc3OC)N(C)C3C(O)(C(=O)OC)C(OC(C)=O)C5(CC)C=CCN6CCC43C65)C2)C1` (stereo not drawn) [Compound 150], for which the IC50 in the assay with HCT116 (Table 6) and in the assay on L1210 (Table 6) was 0.6 nM throughout.

`CCC1(NC(=O)c2cnc3ccccc3c2)CC2CN(CCc3c([nH]c4ccccc34)C(C(=O)OC)(c3cc4c(cc3OC)N(C)C3C(O)(C(=O)OC)C(OC(C)=O)C5(CC)C=CCN6CCC43C65)C2)C1` (stereo not drawn) [Compound 151]: the IC50 with HCT116 (Table 6) is 0.6 nM; with L1210 (Table 6), 0.7 nM.

In the case of `CCC1(NC(=O)c2ccc3ccccc3n2)CC2CN(CCc3c([nH]c4ccccc34)C(C(=O)OC)(c3cc4c(cc3OC)N(C)C3C(O)(C(=O)OC)C(OC(C)=O)C5(CC)C=CCN6CCC43C65)C2)C1` (stereo not drawn) [Compound 152], the IC50 in the assay with HCT116 (Table 6) and in the assay on L1210 (Table 6) was 40 nM each time. For the same compound, the “loss in activity when acyl substitution site is ortho to the basic nitrogen” value in the assay with HCT116 (quinolyl series) is “about 100 fold”.

`CCC1(NC(=O)c2ccc3ccncc3c2)CC2CN(CCc3c([nH]c4ccccc34)C(C(=O)OC)(c3cc4c(cc3OC)N(C)C3C(O)(C(=O)OC)C(OC(C)=O)C5(CC)C=CCN6CCC43C65)C2)C1` (stereo not drawn) [Compound 153]: the IC50 in the assay on HCT116 (Table 6) and with L1210 (Table 6) was 0.4 nM throughout.

As for `CCC1(NC(=O)c2ccc3cnccc3c2)CC2CN(CCc3c([nH]c4ccccc34)C(C(=O)OC)(c3cc4c(cc3OC)N(C)C3C(O)(C(=O)OC)C(OC(C)=O)C5(CC)C=CCN6CCC43C65)C2)C1` (stereo not drawn) [Compound 154], the IC50 in the assay on HCT116 (Table 6) and with L1210 (Table 6) was 0.6 nM throughout.

Take `CC[C@]1(NC(=O)c2ccc3nccnc3c2)C[C@H]2CN(CCc3c([nH]c4ccccc34)[C@@](C(=O)OC)(c3cc4c(cc3OC)N(C)[C@H]3[C@@](O)(C(=O)OC)[C@H](OC(C)=O)[C@]5(CC)C=CCN6CC[C@]43[C@@H]65)C2)C1` [Compound 155]: the IC50 in the assay with HCT116 (Table 6) and in the assay with L1210 (Table 6) was 0.6 nM throughout.
